Experimental data reported in US20080044498A1, “Therapeutic or prophylactic agent, and method of treating or preventing a disease” (priority 2002, published 2008).
“Also recorded” adds a separate entry of the source.

Columns and labels:
Type in all cases: cell-based
[1] = test system: glucose transporter; test: Inhibition by cytochalasin B of 2-deoxyglucose uptake into matured adipocytes; settings: FIG. 13
Procedure: The influence of cytochalasin B on 2-deoxyglucose uptake into matured adipocytes during the stimulation of the sample into the cells was tested in the same manner as in the method described in Example 5 on whether the enhancing action for glucose uptake of the ethanol extract fraction from root portions of Angelica keiskei koidz. shown in Example 16 is inhibited by cytochalasin B, which is an inhibitor of glucose transporter.
Specifically, as a sample, a group with addition of a dimethyl sulfoxide solution of the ethanol extract fraction from root portions of Angelica keiskei koidz. so as to have a final concentration of 0.1% was set. Here, there were set a group without addition of the sample as a negative control, and a group with addition of insulin so as to have a final concentration of 1 μg/mL as a positive control. Furthermore, a group with addition of cytochalasin B (manufactured by nacalai tesque, 10435-81) so as to have a final concentration of 40 μM was set concurrently to the timing of the setting of the group with addition of insulin in each group. Thereafter, the amount of 2-deoxy-[1,2-^3H(N)]-glucose uptake into the cells was determined in the same manner.

[2] = test system: Preadipocyte cell line 3T3-L1; test: Induction of adipocyte differentiation, amount of biosynthesized triglyceride; settings: positive control, 4 μl of aqueous solution containing 5 mg/mL insulin
Procedure: The induction of an adipocyte differentiation was carried out by partially modifying the above-mentioned method of Rubin C. S. et al. Preadipocyte cell line 3T3-L1 (ATCC CCL-92.1) was suspended in a 10% bovine fetal serum (manufactured by GIBCO)-containing Dulbecco's modified Eagle's medium (manufactured by Sigma, D6046) containing 200 μM ascorbic acid (hereinafter referred to as A-D-MEM) so as to have a concentration of 4×10^3 cells/mL, and the suspension was put in each well of a 12-well microtiter plate in an amount of 2 mL per well. The cells were cultured at 37° C. for 7 days in the presence of 5% carbon dioxide gas. The medium was exchanged with the same medium on the second day and the fourth day. […] Here, there were set a group with addition of 4 μl of an aqueous solution containing 5 mg/mL insulin (manufactured by TAKARA BIO INC.) as a positive control, and a group with addition of water as a negative control. […] The amount of biosynthesized triglyceride in the adipocytes was determined as an index of induction of differentiation into matured adipocytes, and as evaluation of insulin-mimetic action. […] The precipitate was dissolved in 100 μl of isopropanol, and thereafter the amount of triglyceride contained in 10 μl of the resulting solution was determined with Triglyceride G-Test (manufactured by Wako Pure Chemical Industries, Ltd., code 276-69801). […]

[3] = test system: matured adipocytes (3T3-L1 cells); test: Enhancing action for glucose uptake (2-deoxyglucose uptake) into matured adipocytes; settings: positive control, insulin final concentration 1 μg/mL
[4] = test system: matured adipocytes (3T3-L1 cells); test: Synergistic enhancing action of glucose uptake with low concentration-insulin in matured adipocytes; settings: insulin alone, final concentration 0.001 μg/mL; FIG. 14
Procedure: As evaluation of the synergistic enhancing action of glucose uptake by the ethanol extract fraction from root portions of Angelica keiskei koidz. prepared in Example 14 and a low concentration-insulin, the amount of 2-deoxyglucose uptake into matured adipocytes during the stimulation of the sample in the adipocytes was determined partly in the same manner as in the method described in Example 5.
The matured adipocytes were prepared in the same manner as in the method described in item (1) of Example 5.
After the termination of the culture, the medium was removed, and the cells were washed twice with 0.1% (w/v) bovine serum albumin (manufactured by Sigma, A8022)-containing Dulbecco's modified Eagle's medium. Thereafter, 1 mL of the same medium containing a dimethyl sulfoxide solution of the ethanol extract fraction from root portions of Angelica keiskei koidz. having a final concentration of 0.02% was added thereto. The cells were cultured overnight at 37° C. in the presence of 5% carbon dioxide gas. A group without containing the ethanol extract fraction from root portions of Angelica keiskei koidz. was set as a negative control. […] Thereafter, the amount of 2-deoxy-[1,2-^3H(N)]-glucose uptake into the cells was determined in the same manner as in the method described in item (2) of Example 5.

[5] = test system: matured adipocytes (3T3-L1 cells); test: Glucose uptake by insulin stimulation into adipocytes induced to be differentiated by the sample; settings: adipocytes differentiated by insulin (4 μl of 5 mg/mL); insulin stimulation 1 μg/mL; FIG. 15
Text: Adipocytes which were induced to be differentiated by the ethanol extract fraction from Angelica keiskei koidz. prepared in Example 14 were obtained, and thereafter it was confirmed whether the glucose uptake into the cells was enhanced by insulin stimulation.
Specifically, as a sample, there was set a group with addition of a dimethyl sulfoxide solution of the ethanol extract fraction from root portions of Angelica keiskei koidz. to have a final concentration of 0.05%. A group with addition of 4 μl of an aqueous solution containing 5 mg/mL insulin (manufactured by TAKARA BIO INC.) was set as a positive control. […]
Next, the amount of 2-deoxyglucose uptake into the resulting matured adipocytes during the insulin stimulation in the adipocytes was determined in the same manner as in the method described in Example 5.
Specifically, a group without addition of insulin or a group with addition of insulin so as to have a final concentration of 1 μg/mL was set in each of the matured adipocytes. Thereafter, the amount of 2-deoxy-[1,2-^3H(N)]-glucose uptake into the cells was determined in the same manner.

C=C1[C@@H](C)[C@H]2[C@H](Cc3ccccc3)NC(=O)[C@]23OC(=O)/C=C/[C@H](O)CCC[C@@H](C)C/C=C/[C@H]3[C@@H]1O [cytochalasin B]
inhibition of 2-deoxy-[1,2-3H(N)]-glucose uptake ([1]; cytochalasin B final concentration 40 μM added concurrently with each group): almost completely inhibited

insulin
induction of triglyceride biosynthesis (adipocyte differentiation) [2]: induction of triglyceride biosynthesis could be confirmed
enhancement of 2-deoxy[1,2-3H(N)]-glucose uptake [3]: enhancement of 2-deoxy[1,2-^3H(N)]-glucose uptake was found; also recorded: enhancement of 2-deoxy-[1,2-^3H(N)]-glucose uptake was found
2-deoxy-[1,2-3H(N)]-glucose uptake with concurrent cytochalasin B ([1]; insulin 1 μg/mL plus cytochalasin B 40 μM): almost completely inhibited
enhancement of 2-deoxy-[1,2-3H(N)]-glucose uptake [4]: enhancement of 2-deoxy-[1,2-^3H(N)]-glucose uptake was found
enhancement of 2-deoxy[1,2-3H(N)]-glucose uptake by insulin stimulation [5]: enhancement of 2-deoxy[1,2-^3H(N)]-glucose uptake was found by insulin stimulation
